# Reference: ChEMBL document CHEMBL1152750, “Design, synthesis and structure-activity relationships of 1,3,4-oxadiazole derivatives as novel inhibitors of glycogen synthase kinase-3beta” (Bioorg Med Chem, 2009)
# What was measured:
# [1] = target: Glycogen synthase kinase-3 beta (Homo sapiens, UniProt P49841); test: Inhibition of human GSK3-beta
# [2] = target: Serine/threonine-protein kinase B-raf (Homo sapiens, UniProt P15056); test: Inhibition of BRAF
# [3] = target: Mast/stem cell growth factor receptor Kit (Homo sapiens, UniProt P10721); test: Inhibition of cKit
# [4] = target: Proto-oncogene tyrosine-protein kinase Src (Homo sapiens, UniProt P12931); test: Inhibition of SRC
# [5] = target: Fibroblast growth factor receptor 3 (Homo sapiens, UniProt P22607); test: Inhibition of FGFR3
# [6] = target: Cyclin-dependent kinase 5 (Homo sapiens, UniProt Q00535); test: Inhibition of CDK5
# Cyclin-dependent kinase 5, sequence (Q00535 whole entry): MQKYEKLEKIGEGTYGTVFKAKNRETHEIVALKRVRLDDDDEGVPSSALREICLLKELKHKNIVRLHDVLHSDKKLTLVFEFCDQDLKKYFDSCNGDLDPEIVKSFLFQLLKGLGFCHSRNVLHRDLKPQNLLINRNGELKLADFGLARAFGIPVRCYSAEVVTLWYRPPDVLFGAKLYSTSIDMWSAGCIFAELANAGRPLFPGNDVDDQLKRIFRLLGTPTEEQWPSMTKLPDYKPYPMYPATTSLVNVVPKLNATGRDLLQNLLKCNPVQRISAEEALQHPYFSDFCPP
# [7] = target: Receptor tyrosine-protein kinase erbB-2 (Homo sapiens, UniProt P04626); test: Inhibition of HER2
# Rattus norvegicus = test: Volume of distribution at steady state in rat […]; assay type: ADME, organism-based; details: in vivo
# [8] = target: Mitogen-activated protein kinase 8 (Homo sapiens, UniProt P45983); test: Inhibition of JNK1
# Mitogen-activated protein kinase 8, sequence (P45983 whole entry, canonical isoform): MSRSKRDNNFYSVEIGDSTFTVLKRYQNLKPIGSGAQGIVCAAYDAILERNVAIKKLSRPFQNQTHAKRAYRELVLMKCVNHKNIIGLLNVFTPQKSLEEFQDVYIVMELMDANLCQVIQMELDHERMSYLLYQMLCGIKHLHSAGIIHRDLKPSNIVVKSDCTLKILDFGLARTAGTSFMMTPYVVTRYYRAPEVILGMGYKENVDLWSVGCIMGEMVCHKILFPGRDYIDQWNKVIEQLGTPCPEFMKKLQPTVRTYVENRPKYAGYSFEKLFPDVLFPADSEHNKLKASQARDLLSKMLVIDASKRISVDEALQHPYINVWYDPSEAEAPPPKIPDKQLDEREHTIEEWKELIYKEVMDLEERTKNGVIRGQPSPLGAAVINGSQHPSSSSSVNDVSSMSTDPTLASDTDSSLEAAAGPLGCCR
# [9] = target: Casein kinase I isoform delta (Homo sapiens, UniProt P48730); test: Inhibition of CK1delta expressed in Escherichia coli
# Casein kinase I isoform delta, sequence (P48730 whole entry, canonical isoform): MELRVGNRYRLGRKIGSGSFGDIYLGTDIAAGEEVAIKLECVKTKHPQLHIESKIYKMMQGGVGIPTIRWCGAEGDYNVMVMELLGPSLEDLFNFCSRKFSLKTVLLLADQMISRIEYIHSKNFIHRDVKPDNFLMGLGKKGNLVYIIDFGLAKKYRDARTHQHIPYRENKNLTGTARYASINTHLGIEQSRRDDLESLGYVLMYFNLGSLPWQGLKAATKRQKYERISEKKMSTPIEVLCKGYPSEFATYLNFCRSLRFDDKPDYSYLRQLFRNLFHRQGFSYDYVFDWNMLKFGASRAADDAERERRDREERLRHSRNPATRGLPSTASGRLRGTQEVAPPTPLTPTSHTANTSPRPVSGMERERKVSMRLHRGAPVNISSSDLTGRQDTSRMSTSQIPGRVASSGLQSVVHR
# [10] = Inhibition of VEGFR
# [11] = target: Hepatocyte growth factor receptor (Homo sapiens, UniProt P08581); test: Inhibition of cMet
# [12] = target: Protein kinase C theta type (Homo sapiens, UniProt Q04759); test: Inhibition of PKCtheta
# [13] = Inhibition of PKA expressed in Escherichia coli
# [14] = target: Mitogen-activated protein kinase kinase kinase 1 (Homo sapiens, UniProt Q13233); test: Inhibition of MEKK1
# Mitogen-activated protein kinase kinase kinase 1, sequence (Q13233 whole entry): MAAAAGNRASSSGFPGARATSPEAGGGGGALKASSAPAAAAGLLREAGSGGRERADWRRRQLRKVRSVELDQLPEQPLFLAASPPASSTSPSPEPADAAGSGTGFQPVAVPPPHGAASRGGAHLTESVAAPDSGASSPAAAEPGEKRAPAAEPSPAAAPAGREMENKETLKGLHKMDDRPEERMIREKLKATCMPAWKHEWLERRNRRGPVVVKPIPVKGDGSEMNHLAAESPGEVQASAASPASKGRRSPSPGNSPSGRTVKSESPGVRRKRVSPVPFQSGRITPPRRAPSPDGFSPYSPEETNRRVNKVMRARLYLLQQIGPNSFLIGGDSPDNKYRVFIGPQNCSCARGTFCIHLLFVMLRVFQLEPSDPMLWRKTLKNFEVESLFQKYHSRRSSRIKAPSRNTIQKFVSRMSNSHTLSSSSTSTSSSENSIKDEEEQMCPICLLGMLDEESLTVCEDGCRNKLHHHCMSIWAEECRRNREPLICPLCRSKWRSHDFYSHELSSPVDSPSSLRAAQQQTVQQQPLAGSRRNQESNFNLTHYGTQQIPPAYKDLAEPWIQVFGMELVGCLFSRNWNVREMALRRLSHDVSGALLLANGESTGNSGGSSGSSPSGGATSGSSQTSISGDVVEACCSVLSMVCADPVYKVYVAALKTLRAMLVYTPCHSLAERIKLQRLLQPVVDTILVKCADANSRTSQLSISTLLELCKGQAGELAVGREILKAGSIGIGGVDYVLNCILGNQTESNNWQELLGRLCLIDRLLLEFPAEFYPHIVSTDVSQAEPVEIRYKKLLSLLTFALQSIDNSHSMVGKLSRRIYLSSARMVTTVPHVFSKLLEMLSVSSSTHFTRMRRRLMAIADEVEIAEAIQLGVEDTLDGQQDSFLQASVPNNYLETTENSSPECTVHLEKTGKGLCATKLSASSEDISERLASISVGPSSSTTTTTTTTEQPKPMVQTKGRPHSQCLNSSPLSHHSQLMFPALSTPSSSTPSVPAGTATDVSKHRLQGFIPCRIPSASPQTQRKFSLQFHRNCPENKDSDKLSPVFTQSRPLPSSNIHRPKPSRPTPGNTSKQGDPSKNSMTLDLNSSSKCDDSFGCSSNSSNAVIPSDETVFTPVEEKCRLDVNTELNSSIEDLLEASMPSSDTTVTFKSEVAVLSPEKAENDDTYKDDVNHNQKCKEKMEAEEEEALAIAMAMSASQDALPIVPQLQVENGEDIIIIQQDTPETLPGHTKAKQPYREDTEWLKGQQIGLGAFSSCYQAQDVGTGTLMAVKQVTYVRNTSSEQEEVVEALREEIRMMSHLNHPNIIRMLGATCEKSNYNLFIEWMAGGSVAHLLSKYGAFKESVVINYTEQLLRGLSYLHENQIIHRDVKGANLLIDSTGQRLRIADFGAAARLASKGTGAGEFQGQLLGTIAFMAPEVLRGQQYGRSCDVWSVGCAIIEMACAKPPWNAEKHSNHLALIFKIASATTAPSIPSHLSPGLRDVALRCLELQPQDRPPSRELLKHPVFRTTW
# [15] = target: Inhibitor of nuclear factor kappa-B kinase subunit beta (Homo sapiens, UniProt O14920); test: Inhibition of IKK-beta
# [16] = target: Mitogen-activated protein kinase 3 (Homo sapiens, UniProt P27361); test: Inhibition of ERK1
# [17] = target: Cyclin-dependent kinase 2 (Homo sapiens, UniProt P24941); test: Inhibition of CDK2
# [18] = target: Mitogen-activated protein kinase 14 (Homo sapiens, UniProt Q16539); test: Inhibition of p38alpha
# Mitogen-activated protein kinase 14, sequence (Q16539 whole entry): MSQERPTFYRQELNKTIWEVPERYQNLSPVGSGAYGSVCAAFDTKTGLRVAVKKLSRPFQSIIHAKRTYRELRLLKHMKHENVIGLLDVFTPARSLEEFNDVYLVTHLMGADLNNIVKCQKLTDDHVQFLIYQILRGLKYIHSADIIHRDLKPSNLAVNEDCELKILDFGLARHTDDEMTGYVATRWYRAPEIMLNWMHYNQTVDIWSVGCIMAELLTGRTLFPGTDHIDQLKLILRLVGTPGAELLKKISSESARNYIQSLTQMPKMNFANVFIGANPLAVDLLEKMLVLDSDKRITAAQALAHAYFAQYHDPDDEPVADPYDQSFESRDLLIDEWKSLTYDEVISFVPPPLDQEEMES
# [19] = target: Cyclin-dependent kinase 1 (Homo sapiens, UniProt P06493); test: Inhibition of CDK1
# Cyclin-dependent kinase 1, sequence (P06493 whole entry): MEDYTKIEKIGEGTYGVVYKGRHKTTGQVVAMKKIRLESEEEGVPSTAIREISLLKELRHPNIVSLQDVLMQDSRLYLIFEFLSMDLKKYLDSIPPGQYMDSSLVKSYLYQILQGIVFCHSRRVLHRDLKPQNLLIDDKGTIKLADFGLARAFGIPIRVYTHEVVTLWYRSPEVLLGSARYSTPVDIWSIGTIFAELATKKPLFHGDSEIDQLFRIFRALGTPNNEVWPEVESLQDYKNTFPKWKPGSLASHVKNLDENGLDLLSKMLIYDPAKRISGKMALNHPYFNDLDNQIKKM
# Aurora kinase B = Aurora kinase B (Homo sapiens, UniProt Q96GD4); test: Inhibition of Aurora B
# [20] = Total clearance in rat at 0.1 mg/kg, iv; assay type: ADME, organism-based; set-up: dose 0.1 mg/kg, route intravenous; details: in vivo
# [21] = target: Dual specificity mitogen-activated protein kinase kinase 1 (Homo sapiens, UniProt Q02750); test: Inhibition of MEK1
# Dual specificity mitogen-activated protein kinase kinase 1, sequence (Q02750 whole entry): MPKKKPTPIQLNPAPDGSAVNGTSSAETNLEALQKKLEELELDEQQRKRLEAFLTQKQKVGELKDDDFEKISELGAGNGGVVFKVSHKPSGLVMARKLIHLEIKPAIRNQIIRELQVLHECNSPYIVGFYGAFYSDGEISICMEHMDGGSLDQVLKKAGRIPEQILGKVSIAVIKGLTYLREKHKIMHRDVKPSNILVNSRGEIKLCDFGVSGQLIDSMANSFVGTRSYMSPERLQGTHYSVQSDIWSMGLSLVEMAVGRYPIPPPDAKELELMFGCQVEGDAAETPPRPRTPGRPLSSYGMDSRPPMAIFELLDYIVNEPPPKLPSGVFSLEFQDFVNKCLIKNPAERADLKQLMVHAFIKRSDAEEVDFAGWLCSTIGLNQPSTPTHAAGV
# [22] = Oral bioavailability in rat at 1 mg/kg; assay type: ADME, organism-based; details: in vivo
# [23] = AUC in rat at 1 mg/kg, po; assay type: ADME, organism-based; set-up: dose 1 mg/kg, route oral; details: plasma
# Angiopoietin-1 receptor = Angiopoietin-1 receptor (Homo sapiens, UniProt Q02763); test: Inhibition of Tie2
# [24] = target: Tyrosine-protein kinase Lck (Homo sapiens, UniProt P06239); test: Inhibition of Lck
# Glycogen synthase kinase-3 beta, sequence (P49841 whole entry): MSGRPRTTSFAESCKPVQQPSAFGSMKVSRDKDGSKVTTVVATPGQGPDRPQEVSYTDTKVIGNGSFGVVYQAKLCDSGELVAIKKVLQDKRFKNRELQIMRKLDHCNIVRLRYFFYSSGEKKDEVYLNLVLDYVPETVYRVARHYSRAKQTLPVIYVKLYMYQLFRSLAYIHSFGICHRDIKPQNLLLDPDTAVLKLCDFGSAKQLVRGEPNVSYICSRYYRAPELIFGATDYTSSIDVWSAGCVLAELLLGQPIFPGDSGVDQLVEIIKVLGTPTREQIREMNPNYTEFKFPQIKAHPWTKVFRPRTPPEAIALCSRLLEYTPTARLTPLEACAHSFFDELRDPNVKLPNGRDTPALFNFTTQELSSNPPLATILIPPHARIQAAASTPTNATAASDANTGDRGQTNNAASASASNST
# Serine/threonine-protein kinase B-raf, sequence (P15056 whole entry): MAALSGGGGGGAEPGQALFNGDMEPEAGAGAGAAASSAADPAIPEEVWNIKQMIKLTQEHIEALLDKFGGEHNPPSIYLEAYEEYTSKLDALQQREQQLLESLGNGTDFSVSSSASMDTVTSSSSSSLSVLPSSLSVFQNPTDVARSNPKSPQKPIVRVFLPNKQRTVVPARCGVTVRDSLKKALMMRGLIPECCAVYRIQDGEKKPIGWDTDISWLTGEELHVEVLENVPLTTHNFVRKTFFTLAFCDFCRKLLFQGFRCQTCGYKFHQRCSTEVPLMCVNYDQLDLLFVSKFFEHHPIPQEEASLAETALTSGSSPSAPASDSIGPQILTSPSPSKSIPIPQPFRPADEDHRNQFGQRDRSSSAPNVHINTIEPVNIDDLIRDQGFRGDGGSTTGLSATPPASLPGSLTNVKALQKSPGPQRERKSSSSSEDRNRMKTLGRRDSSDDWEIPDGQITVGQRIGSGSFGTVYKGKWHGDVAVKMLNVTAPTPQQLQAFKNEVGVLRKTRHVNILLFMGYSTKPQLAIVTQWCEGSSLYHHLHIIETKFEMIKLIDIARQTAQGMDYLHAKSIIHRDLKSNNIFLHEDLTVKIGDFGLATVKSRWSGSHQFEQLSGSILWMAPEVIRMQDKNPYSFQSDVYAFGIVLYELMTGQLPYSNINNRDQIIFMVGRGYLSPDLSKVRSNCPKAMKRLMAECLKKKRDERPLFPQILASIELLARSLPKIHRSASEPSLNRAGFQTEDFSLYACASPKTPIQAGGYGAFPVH
compound,measurement,setting,value
Clc1ccccc1CSc1nnc(-c2ccc3c(c2)CCO3)o1,IC50,[1],200 nM
COc1ccc(CSc2nnc(-c3ccc4ncsc4c3)o2)cc1C(F)(F)F,IC50,[1],3.1 nM
Clc1ccc(CSc2nnc(-c3ccc4c(c3)CCO4)o2)cc1,IC50,[1],280 nM
COc1ccc(CSc2nnc(-c3ccc4occc4c3)o2)cc1C(F)(F)F,IC50,[1],4.9 nM
COc1ccc(-n2cnc3ccc(-c4nnc(SCc5cccc(C(F)(F)F)c5)o4)cc32)cc1,IC50,[1],2.5 nM
COc1ccc(CSc2nnc(-c3ccc4c(c3)CCO4)o2)cc1C#N,IC50,[1],28 nM
COc1ccc(CSc2nnc(-c3ccc4c(c3)CCO4)o2)cc1Cl,IC50,[1],13 nM
COc1ccc(-n2cnc3ccc(-c4nnc(SCc5cccc(C#N)c5)o4)cc32)cc1,IC50,[2],> 10000 nM
same,IC50,[3],> 10000 nM
same,IC50,[4],> 10000 nM
same,IC50,[5],> 10000 nM
same,IC50,[6],> 10000 nM
same,IC50,[7],> 10000 nM
same,Vdss,Rattus norvegicus,1.453 L/kg
same,IC50,[8],> 10000 nM
same,IC50,[9],> 10000 nM
same,IC50,[10],> 10000 nM
same,IC50,[11],> 10000 nM
same,IC50,[12],3500 nM
same,IC50,[13],> 10000 nM
same,IC50,[14],8100 nM
same,IC50,[15],> 10000 nM
same,IC50,[16],> 10000 nM
same,IC50,[17],> 10000 nM
same,IC50,[18],> 10000 nM
same,IC50,[1],2.3 nM
same,IC50,[19],4600 nM
same,IC50,Aurora kinase B,> 10000 nM
same,clearance,[20],35.6 mL/min/kg
same,IC50,[21],> 10000 nM
same,bioavailability,[22],1.7%
same,AUC,[23],7.9 ng·h/mL
same,IC50,Angiopoietin-1 receptor,> 10000 nM
same,IC50,[24],> 10000 nM
FC(F)(F)c1cccc(CSc2nnc(-c3ccc4c(c3)CCO4)o2)c1,IC50,[1],68 nM
COc1ccc(-c2coc3ccc(-c4nnc(SCc5ccc(OC)c(C(F)(F)F)c5)o4)cc23)cc1,IC50,[1],25 nM
O=[N+]([O-])c1ccc(NCCNc2ncc(-c3ncc[nH]3)c(-c3ccc(Cl)cc3Cl)n2)nc1,IC50,[1],10 nM
COc1ccc(CSc2nnc(-c3ccc4ncccc4c3)o2)cc1C(F)(F)F,IC50,[1],18 nM
Fc1cccc(CCc2nnc(-c3ccc4c(c3)CCO4)o2)c1,IC50,[1],340 nM
COc1ccc(-c2coc3ccc(-c4nnc(SCc5cccc(C#N)c5)o4)cc23)cc1,IC50,[1],3.5 nM
COc1ccc(-n2cnc3ccc(-c4nnc(SCc5ccc(OC)c(C(F)(F)F)c5)o4)cc32)cc1,IC50,[1],8.6 nM
Cn1cnc2ccc(-c3nnc(SCc4cccc(C(F)(F)F)c4)o3)cc21,IC50,[1],9.4 nM
Clc1cccc(CSc2nnc(-c3ccc4c(c3)CCO4)o2)c1,IC50,[1],94 nM
COc1ccc(CSc2nnc(-c3ccc4c(c3)CCO4)o2)cc1,IC50,[1],220 nM
Fc1cccc(CNc2nnc(-c3ccc4c(c3)CCO4)o2)c1,IC50,[1],330 nM
COC(=O)c1cccc(CSc2nnc(-c3ccc4c(c3)CCO4)o2)c1,IC50,[1],630 nM
COc1ccc(-c2coc3ccc(-c4nnc(SCc5cccc(C(F)(F)F)c5)o4)cc23)cc1,IC50,[1],8.4 nM
Fc1cccc(COc2nnc(-c3ccc4c(c3)CCO4)o2)c1,IC50,[1],> 10000 nM
Fc1cccc(CSc2nnc(-c3ccc4c(c3)CCO4)o2)c1,IC50,[1],54 nM
c1ccc(CSc2nnc(-c3ccc4c(c3)CCO4)o2)cc1,IC50,[1],210 nM
COc1ccc(CSc2nnc(-c3ccc4c(c3)CCO4)o2)cc1C(F)(F)F,IC50,[1],5.7 nM
COc1ccc(CSc2nnc(-c3ccc4c(c3)CCO4)o2)cc1F,IC50,[1],44 nM
Fc1cccc(SCc2nnc(-c3ccc4c(c3)CCO4)o2)c1,IC50,[1],680 nM
COc1ccc(CSc2nnc(-c3ccc4[nH]ncc4c3)o2)cc1C(F)(F)F,IC50,[1],16 nM
N#Cc1cccc(CSc2nnc(-c3ccc4c(c3)CCO4)o2)c1,IC50,[1],91 nM
